According to publication PMC4976201, “Total synthesis of teixobactin” (Nature Communications, 2016):

Test system: Gram-positive bacterial pathogens
Assay: Antibacterial activity on Gram-positive bacteria, stated in words
Assay type: cell-based
Conditions: MIC on various Gram-positive bacteria strains
From the text: Synthetic teixobactin and its analogues were subjected to the assessment of their antimicrobial activities by determining their minimal inhibitory concentration on various Gram-positive bacteria strains including methicillin-susceptible S. aureus strain ATCC29213 and methicillin-resistant S. aureus clinical isolates. […] In this effort, the original stereo-configuration of the amino-acid residue should be thoroughly scrutinized. From our study, it is encouraging to find that Orn-containing teixobactin analogues maintained modest antibacterial activity. Since Orn is readily available as compared with L-allo-End and the synthesis of the Orn-containing cyclic depsipeptide (7–11) gave the best yield among all the analogue syntheses, which is amenable to a large-scale synthesis. Through the above-developed convergent synthetic strategy, various linear hexapeptide (1–6), such as 11, can be readily prepared and ligated to the Orn-containing the cyclic depsi-pentapeptide (7–11) to investigate the contribution of each amino acid in the linear peptide fragment towards the antibacterial activity, which will lead to the optimal structure for the development of teixobactin with improved properties.

Structure (SMILES) | antibacterial activity compared with natural teixobactin
CC[C@@H](C)[C@@H](NC(=O)[C@@H](CCC(N)=O)NC(=O)[C@H](CO)NC(=O)[C@@H](NC(=O)[C@@H](Cc1ccccc1)NC)[C@@H](C)CC)C(=O)N[C@H](C(=O)N[C@@H](CO)C(=O)N[C@H]1C(=O)N[C@@H](C)C(=O)N[C@@H](CCCNC(=N)N)C(=O)N[C@@H]([C@@H](C)CC)C(=O)O[C@H]1C)[C@@H](C)CC [compound 14] | reduced antibacterial activities
CC[C@H](C)[C@H](NC(=O)[C@@H](Cc1ccccc1)NC)C(=O)N[C@@H](CO)C(=O)N[C@H](CCC(N)=O)C(=O)N[C@@H](C(=O)N[C@H](C(=O)N[C@@H](CO)C(=O)N[C@H]1C(=O)N[C@@H](C)C(=O)N[C@@H](CCCN)C(=O)N[C@@H]([C@@H](C)CC)C(=O)O[C@H]1C)[C@@H](C)CC)[C@@H](C)CC [compound 16] | reduced antibacterial activities
